Measurements reported in patent publication US8188287B2, “Piperidyl acrylamide antagonists of CCR2” (Janssen Pharmaceutica N.V., priority 2008, dated 2012).

Target: T1, CCR2 (Homo sapiens, UniProt P41597)
T1 construct: host or cells: THP-1 (human monocytic cell line)
Experiment: MCP-1 Receptor Binding Assay in THP-1 Cells
Conditions: 125I labeled MCP-1 0.5 nM, 2 hours at 30° C., read-out: Inhibition of MCP-1 Binding IC50
Experimental: MCP-1 Receptor Binding Assay in THP-1 Cells
Human monocytic cell line THP-1 cells were obtained from American Type Culture Collection (Manassas, Va., USA). The THP-1 cells were grown in RPMI-1640 (RPMI: Roswell Park Memorial Institute Medium-cell culture growth media) supplemented with 10% fetal bovine serum in a humidified 5% CO2 atmosphere at 37° C. The cell density was maintained […].
THP-1 (cells were incubated with 0.5 nM ^125I labeled MCP-1 (Perkin-Elmer Life Sciences, Inc. Boston, Mass.) in the presence of varying concentrations of either unlabeled MCP-1 (R & D Systems, Minneapolis, Minn.) or test compound for 2 hours at 30° C. in a 96 well plate. Cells were then harvested onto a filter plate, dried, and 20 μL of Microscint 20 was added to each well. Plates were counted in a TopCount NXT, Microplate Scintillation & Luminescence Counter (Perkin-Elmer Life Sciences, Inc. Boston, Mass.). Blank values (buffer only) were subtracted from all values and drug treated values were compared to vehicle treated values. 1 μM cold MCP-1 was used for nonspecific binding.
Table 1 lists IC50 values for inhibition of MCP-1 binding to CCR2 obtained for test compounds of the invention. Where an IC50 value was not obtained for a particular compound, the percent inhibition is provided at a test concentration of 25 μM. TABLE 1 Inhibition of MCP-1 Binding IC50 (μM)

T1 sequence (P41597 whole entry): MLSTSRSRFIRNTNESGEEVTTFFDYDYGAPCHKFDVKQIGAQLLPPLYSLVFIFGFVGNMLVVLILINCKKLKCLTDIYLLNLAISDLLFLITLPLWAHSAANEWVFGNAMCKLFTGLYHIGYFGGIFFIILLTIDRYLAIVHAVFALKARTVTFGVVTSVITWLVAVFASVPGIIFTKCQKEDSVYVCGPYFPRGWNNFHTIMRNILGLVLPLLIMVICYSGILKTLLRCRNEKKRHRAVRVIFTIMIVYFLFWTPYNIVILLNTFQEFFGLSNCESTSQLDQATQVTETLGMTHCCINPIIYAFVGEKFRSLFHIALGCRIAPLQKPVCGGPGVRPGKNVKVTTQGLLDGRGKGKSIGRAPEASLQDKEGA

Row | Structure (SMILES) | IC50 [nM]
1 | O=C(/C=C/c1cc(F)c(F)c(F)c1)N1CCC(N(CC(O)CO)N2CCC(c3c[nH]c4ccccc34)CC2)CC1 (stereo not shown) [Compound 4d, 1-(4-{(2,3-Dihydroxy-propyl)-[4-(1H-indol-3-yl)-piperidin-1-yl]-amino}-piperidin-1-yl)-3-(3,4,5-trifluoro-phenyl)-propenone] | 1400
2 | O=C(O)C(NN1CCC(c2c[nH]c3ccccc23)CC1)C1CCN(C(=O)/C=C/c2cc(F)c(F)c(F)c2)CC1 (racemic) [Compound 5d, [4-(1H-Indol-3-yl)-piperidin-1-ylamino]-{1-[3-(3,4,5-trifluoro-phenyl)-acryloyl]-piperidin-4-yl}-acetic acid] | 640
3 | O=C(/C=C/c1cc(F)c(F)c(F)c1)N1CCC(NN2CCC(c3c[nH]c4ccccc34)CC2)CC1 [Compound 3a, 1-{4-[4-(1H-Indol-3-yl)-piperidin-1-ylamino]-piperidin-1-yl}-3-(3,4,5-trifluoro-phenyl)-propenone] | 1600

Same assay, conditions: test concentration of 25 μM, 125I labeled MCP-1 0.5 nM

Row | Structure (SMILES) | Inhibition of MCP-1 Binding Inh (%)
4 | CC(C)CN(C1CCN(C(=O)/C=C/c2cc(F)c(F)c(F)c2)CC1)N1CCC(c2c[nH]c3ccccc23)CC1 [Compound 4c, 1-(4-{[4-(1H-Indol-3-yl)-piperidin-1-yl]-isobutyl-amino}-piperidin-1-yl)-3-(3,4,5-trifluoro-phenyl)-propenone] | 0
5 | CCN(C1CCN(C(=O)/C=C/c2cc(F)c(F)c(F)c2)CC1)N1CCC(c2c[nH]c3ccccc23)CC1 [Compound 4b, 1-(4-{Ethyl-[4-(1H-indol-3-yl)-piperidin-1-yl]-amino}-piperidin-1-yl)-3-(3,4,5-trifluoro-phenyl)-propenone] | 34
6 | O=C(/C=C/c1cc(F)c(F)c(F)c1)N1CCC(N(Cc2ncc[nH]2)N2CCC(c3c[nH]c4ccccc34)CC2)CC1 [Compound 4e, 1-(4-{(1H-Imidazol-2-ylmethyl)-[4-(1H-indol-3-yl)-piperidin-1-yl]-amino}-piperdin-1-yl)-3-(3,4,5-trifluoro-phenyl)-propenone] | 20
7 | CN(C1CCN(C(=O)/C=C/c2cc(F)c(F)c(F)c2)CC1)N1CCC(c2c[nH]c3ccccc23)CC1 [Compound 4a, 1-(4-{[4-(1H-Indol-3-yl)-piperidin-1-yl]-methyl-amino}-piperidin-1-yl)-3-(3,4,5-trifluoro-phenyl)-propenone] | 59
